The results in this text go back to patent publication US11905282B1, “1-cyclopropyl-7-(4-((5-(2,4-dichlorobenzylideneamino)-2-thioxo-1,3,4-thiadiazol-3(2H)-yl)methyl)piperazin-1-yl)-6-fluoro-4-oxo-1,4-dihydroquinoline-3-carboxylic acid as an anti-inflammatory compound” (KING FAISAL UNIVERSITY, priority 2023, dated 2024).

For this assay, the target named is Bovine Serum Albumin (Bos taurus, UniProt P02769). The assay can be described thus: Bovine Serum Albumin Assay (BSA), inhibition of heat-induced protein denaturation (in vitro anti-inflammatory activity). Format: biochemical. As for the experimental part: Bovine Serum Albumin Assay (BSA) In vitro-inflammatory activities of the tested samples were determined using a modified method of the BSA assay reported by Williams et al. BSA solution (0.4%, w/v) was prepared in Tris Buffered Saline. The pH was adjusted to 6.4 with glacial acetic acid. Different dilutions of 20, 40, 60, 80, and 100 μg/mL of 1-cyclopropyl-6-fluoro-4-oxo-7-(4-((5-oxo-2-phenyl-4-(quinolin-2-ylmethylene)-4,5-dihydro-1H-imidazol-1-yl)methyl)piperazin-1-yl)-1,4-dihydroquinoline-3-carboxylic acid in the stock solutions were added to test tubes containing 1 mL of 0.4%, w/v BSA buffer solution. Both negative (solvent) and positive (aspirin) controls were assayed in a similar manner. The solutions were then heated in a water bath at 72° C. for 10 minutes and cooled for 20 minutes under laboratory conditions. The turbidity of the solutions (level of protein precipitation) was measured at 660 nm in Spectrophotometer (V-770 UV-Visible/NIR Spectrophotometer). The percentage inhibition of precipitation (protein denaturation) was determined relative to the negative control using the following equation: [formula] [formula]

The mark [1] stands for this setting: read-out: percentage inhibition of precipitation (protein denaturation).

Read-outs that look alike come from different tables or passages of the source.

Chain of Bovine Serum Albumin (P02769 25-607): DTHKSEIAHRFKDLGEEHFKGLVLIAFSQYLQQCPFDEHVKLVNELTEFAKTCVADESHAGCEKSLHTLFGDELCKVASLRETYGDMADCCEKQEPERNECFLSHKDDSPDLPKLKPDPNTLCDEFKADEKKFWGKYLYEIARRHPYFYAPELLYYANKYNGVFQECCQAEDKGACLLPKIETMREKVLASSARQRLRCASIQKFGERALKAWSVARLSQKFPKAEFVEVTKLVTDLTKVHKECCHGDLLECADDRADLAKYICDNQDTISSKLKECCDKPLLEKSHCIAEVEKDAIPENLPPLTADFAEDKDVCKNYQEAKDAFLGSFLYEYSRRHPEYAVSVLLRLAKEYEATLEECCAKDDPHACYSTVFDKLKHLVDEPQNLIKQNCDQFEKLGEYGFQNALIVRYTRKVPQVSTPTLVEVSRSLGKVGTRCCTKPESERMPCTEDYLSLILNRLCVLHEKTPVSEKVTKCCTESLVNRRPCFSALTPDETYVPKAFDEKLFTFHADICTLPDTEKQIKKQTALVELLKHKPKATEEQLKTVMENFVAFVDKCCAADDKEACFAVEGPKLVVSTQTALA

On to `O=C(O)c1cn(C2CC2)c2cc(N3CCN(Cn4nc(/N=C/c5ccc(Cl)cc5Cl)sc4=S)CC3)c(F)cc2c1=O` [Present compound, 1-cyclopropyl-7-(4-((5-(2,4-dichlorobenzylideneamino)-2-thioxo-1,3,4-thiadiazol-3(2H)-yl)methyl)piperazin-1-yl)-6-fluoro-4-oxo-1,4-dihydroquinoline-3-carboxylic acid], for which, where the note is “BSA assay, result in words”, the “in vitro anti-inflammatory effect” value is listed as “considerable anti-inflammatory effect”. Under setting [1], the inhibition at 20 µg/mL is 68.2%, the inhibition at 40 µg/mL came to 75.7%, the inhibition at 60 µg/mL was 79.1% and the inhibition at 80 µg/mL worked out at 83.8%. Moreover, the inhibition at 100 µg/mL under setting [1] was determined as 87.6%.

As to `CC(=O)Oc1ccccc1C(=O)O` [P.C, aspirin, reference compound], under “concentration 100 μg/ml, 72° C. 10 minutes, turbidity at 660 nm, read-out: percentage inhibition of precipitation (protein denaturation)”, the inhibition at 100 µg/mL amounted to 90.7%.
